The source of these data is patent US20220411388A1, “SUBSTITUTED IMIDAZOLE CARBOXAMIDES AND THEIR USE IN THE TREATMENT OF MEDICAL DISORDERS” (Bial - R&D Investments, S.A., priority 2019, published 2022).

Series [1] is described as follows: Compound solubility in water. Type of series: physicochemical.
The target in a further series is T1, acid ceramidase (hACR) (Homo sapiens, UniProt Q13510).
T1 construct: expressed in transfected cells
T1 sequence (Q13510 22-395): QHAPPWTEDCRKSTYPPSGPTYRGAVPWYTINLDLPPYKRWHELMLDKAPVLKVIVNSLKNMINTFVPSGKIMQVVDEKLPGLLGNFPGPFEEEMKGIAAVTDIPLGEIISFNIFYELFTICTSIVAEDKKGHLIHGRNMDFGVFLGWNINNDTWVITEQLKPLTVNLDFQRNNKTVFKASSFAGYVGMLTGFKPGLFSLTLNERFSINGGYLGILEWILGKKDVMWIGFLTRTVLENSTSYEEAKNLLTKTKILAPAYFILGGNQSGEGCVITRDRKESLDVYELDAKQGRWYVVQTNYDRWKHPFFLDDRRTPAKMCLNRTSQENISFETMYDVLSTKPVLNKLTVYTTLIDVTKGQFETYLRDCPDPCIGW
As to the kind of experiment: Acid ceramidase inhibition, biochemical fluorescent assay with cell lysates overexpressing acid ceramidase (substrate Rbm14-12). The settings on record: cell lysate, 1 hr preincubation at RT, pH 4.5, Rbm14-12 6.3 μM; read-out: IC50 hACR. An outline of the steps: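 Enzyme source was lysate from cells overexpressing acid ceramidase, 10 µg protein per reaction. Compounds were preincubated 1 h at RT in 25 mM NaAc, 100 mM NaCl, pH 4.5.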

Structures are written as SMILES. ≈ marks a conversion by molar mass, not a printed value. A value given as a limit tells only on which side of the number the result lay.

What is called solubility is how much of the substance goes into solution per volume. Read a high solubility as a readily soluble substance. As usually defined, the IC50 is the concentration that inhibits the measured activity by half. In series [1], `Cc1cn(C(=O)NC2CC2)c(OC2CCC(F)(F)CC2)n1` [Example 183, N-Cyclopropyl-2-(4,4-difluorocyclohexyloxy)-4-methyl-1H-imidazole-1-carboxamide] registered a solubility of 31 µg/mL (≈ 104 µM). On acid ceramidase (hACR), the IC50 fell in the range of 200 to 1000 nM.

As for `CC(C)CCNC(=O)n1cnc(-c2nccs2)c1` [Example 50, N-iso-Pentyl-4-(thiazol-2-yl)-1H-imidazole-1-carboxamide], the concentration in solution in series [1] (solubility) was 23.5 µg/mL (≈ 88.9 µM). Besides, the 50% inhibitory concentration (IC50) on acid ceramidase (hACR) fell in the range of 200 to 1000 nM.

In turn, `CSc1nc(-c2cccnc2)cn1C(=O)NCCC1CC1` [Example 67a] had a solubility in series [1] of 23 µg/mL (≈ 76.1 µM). In addition, the IC50 at acid ceramidase (hACR) was in the range of 200 to 1000 nM.

Regarding `O=C(NCCC1CC1)n1cnc(-n2ccc(F)n2)c1` [Example 74, N-(2-Cyclopropylethyl)-4-(3-fluoro-1H-pyrazol-1-yl)-1H-imidazole-1-carboxamide], in series [1], the solubility came out at 34 µg/mL (≈ 129 µM). Moreover, at acid ceramidase (hACR), the IC50 is above 1000 nM.

For the molecule `COc1ccc(-c2cn(C(=O)NCCc3ccccc3)cn2)cn1` [Example 31, 4-(6-Methoxypyridin-3-yi)-N-phenethyl-1H-imidazole-1-carboxamide], the solubility in series [1] came out at 25.1 µg/mL (≈ 77.9 µM). Further, the IC50 on acid ceramidase (hACR) is below 200 nM.

Take `Cc1cn(C(=O)NCC#CCc2ccccc2)c(OCCN2CCN(C)CC2)n1` [Example 201, 4-Methyl-2-(2-(4-methylpiperazin-1-yl)ethoxy)-N-(4-phenylbut-2-ynyl)-1H-imidazole-1-carboxamide]: the solubility in series [1] was found to be 39 µg/mL (≈ 98.6 µM). For the same molecule, the IC50 at acid ceramidase (hACR) is below 200 nM.

Consider `CC(C)(C)c1cn(C(=O)NCCOc2ccccc2)cn1` [Example 19, 4-tert-Butyl-N-(2-phenoxyethyl)-1H-imidazole-1-carboxamide], for which the concentration in solution in series [1] (solubility) came to 0.8 µg/mL (≈ 2.78 µM). Further, the IC50 on acid ceramidase (hACR) was below 200 nM.

In series [1], `COc1nc(C)cn1C(=O)NC1CCCC(F)(F)C1` (stereo not drawn) [Example 153, N-(3,3-difluorocyclohexyl)-2-methoxy-4-methyl-1H-imidazole-1-carboxamide] gave a solubility of 29 µg/mL (≈ 106 µM). Also, the IC50 on acid ceramidase (hACR) is above 1000 nM.

Consider `CC(C)CCNC(=O)n1cnc(C2CCCN(C)C2)c1` (stereo not drawn) [Example 47, N-iso-Pentyl-4-(1-methylpiperidin-3-yl)-1H-imidazole-1-carboxamide], for which the solubility in series [1] was 32.2 µg/mL (≈ 116 µM). Besides, the IC50 at acid ceramidase (hACR) lay within 200 to 1000 nM.

Turning to `COc1nc(C2CC2)cn1C(=O)NCCc1ccccc1` [Example 130, 4-Cyclopropyl-2-methoxy-N-phenethyl-1H-imidazole-1-carboxamide], the solubility in series [1] stood at 12 µg/mL (≈ 42.1 µM). Further, the IC50 at acid ceramidase (hACR) was in the range of 200 to 1000 nM.

As to `O=C(NCCCc1ccccc1)n1cnc(-c2ccccc2)c1` [Example 9], the solubility in series [1] amounted to 1.3 µg/mL (≈ 4.26 µM). Also, the IC50 on acid ceramidase (hACR) was below 200 nM.

Consider `CCC(C)CNC(=O)n1cnc(-c2cccnc2)c1` (stereo not drawn) [Example 60, N-(2-Methylbutyl)-4-(pyridin-3-yl)-1H-imidazole-1-carboxamide], for which, in series [1], the concentration in solution (solubility) came to 25.6 µg/mL (≈ 99.1 µM). At acid ceramidase (hACR), the IC50 lay within 200 to 1000 nM.

The molecule `O=C(NCCCc1ccccc1)n1cnc(-c2cccnc2)c1` [Example 14, N-(3-Phenylpropyl)-4-(pyridin-3-yl)-1H-imidazole-1-carboxamide] returned a solubility in series [1] of 14.3 µg/mL (≈ 46.7 µM). The IC50 on acid ceramidase (hACR) is below 200 nM.

`CC(C)CCNC(=O)n1cnc(-c2cncs2)c1` [Example 51, N-iso-Pentyl-4-(thiazol-5-yl)-1H-imidazole-1-carboxamide] came in with a solubility in series [1] of 25.1 µg/mL (≈ 94.9 µM). Further, on acid ceramidase (hACR), the IC50 lay within 200 to 1000 nM.

In series [1], `O=C(NCCCC1(C(F)(F)F)CC1)n1cnc(-c2cccnc2N2CCCCC2)c1` [Example 175, 4-(2-(Piperidin-1-yl)pyridin-3-yl)-N-(3-(1-(trifluoromethyl)cyclopropyl)propyl)-1H-imidazole-1-carboxamide] gave a solubility of 1 µg/mL (≈ 2.37 µM). Besides, on acid ceramidase (hACR), the IC50 is below 200 nM.

With `COc1nc(Cl)cn1C(=O)NCCC1CCCC1(F)F` (stereo not drawn) [Example 185, 4-Chloro-N-(2-(2,2-difluorocyclopentyl)ethyl)-2-methoxy-1H-imidazole-1-carboxamide], the solubility in series [1] turned out to be 29 µg/mL (≈ 94.2 µM). For the same molecule, the concentration for half-maximal inhibition (IC50) at acid ceramidase (hACR) is below 200 nM.

Regarding `COc1ccc(-c2cn(C(=O)NC3CCCCC3)cn2)cn1` [Example 62, N-Cyclohexyl-4-(6-methoxypyridin-3-yl)-1H-imidazole-1-carboxamide], the solubility in series [1] turned out to be 0.6 µg/mL (≈ 2 µM). Besides, at acid ceramidase (hACR), the IC50 is above 1000 nM.

As for `COc1nc(C2CCCO2)cn1C(=O)NCCC(C)C` (stereo not drawn) [Example 84, N-iso-pentyl-2-methoxy-4-(tetrahydrofuran-2-yl)-1H-imidazole-1-carboxamide], the solubility in series [1] amounted to 25 µg/mL (≈ 88.9 µM). Also, the IC50 on acid ceramidase (hACR) is above 1000 nM.

`COc1nc(C2(C)CCC(=O)N2C)cn1C(=O)NCCC(C)C` (stereo not drawn) [Example 82, 4-(1,2-Dimethyl-5-oxopyrrolidin-2-yl)-N-iso-pentyl-2-methoxy-1H-imidazole-1-carboxamide] registered a solubility in series [1] of 31 µg/mL (≈ 96.2 µM). In addition, the IC50 at acid ceramidase (hACR) is above 1000 nM.

`O=C(NCCCC1(C(F)(F)F)CC1)n1ccnc1Oc1ccccc1` [Example 177, 2-Phenoxy-N-(3-(1-(trifluoromethyl)cyclopropyl)propyl)-1H-imidazole-1-carboxamide] displayed a solubility in series [1] of 8 µg/mL (≈ 22.6 µM). Besides, the IC50 at acid ceramidase (hACR) is below 200 nM.

In series [1], `COc1nc(C(C)(C)C)cn1C(=O)NCCCC1(C(F)(F)F)CC1` [Example 96, 4-(tert-Butyl)-2-methoxy-N-(3-(1-(trifluoromethyl)cyclopropyl)propyl)-1H-imidazole-1-carboxamide] displayed a solubility of 12 µg/mL (≈ 34.5 µM). For the same molecule, the IC50 on acid ceramidase (hACR) is below 200 nM.

Molecule `COc1nccn1C(=O)NCCC(C)C` [Example 78, N-iso-pentyl-2-methoxy-1H-imidazole-1-carboxamide] registered a solubility in series [1] of 28 µg/mL (≈ 133 µM). For the same molecule, the IC50 at acid ceramidase (hACR) fell in the range of 200 to 1000 nM.

`O=C(NCCC1(C(F)(F)F)CC1)n1cnc(-c2ccccc2)c1` [Example 25, 4-Phenyl-N-(2-(1-(trifluoromethyl)cyclopropyl)ethyl)-1H-imidazole-1-carboxamide]: the solubility in series [1] turned out to be 0.8 µg/mL (≈ 2.47 µM). Further, the IC50 on acid ceramidase (hACR) was below 200 nM.

`Cc1cn(C(=O)NC2CCC(F)(F)CC2)c(Oc2ccccc2)n1` [Example 172, N-(4,4-Difluorocyclohexyl)-4-methyl-2-phenoxy-1H-imidazole-1-carboxamide] had a solubility in series [1] of 4 µg/mL (≈ 11.9 µM). For the same molecule, on acid ceramidase (hACR), the concentration for half-maximal inhibition (IC50) was below 200 nM.

`COc1nc(C(C)(C)C)cn1C(=O)NCCCC(F)(F)F` [Example 91, 4-(tert-Butyl)-2-methoxy-N-(4,4,4-trifluorobutyl)-1H-imidazole-1-carboxamide] showed a solubility in series [1] of 22 µg/mL (≈ 71.6 µM). For the same molecule, the IC50 at acid ceramidase (hACR) was 200 to 1000 nM.

In series [1], `COc1ccc(-c2cn(C(=O)NCCC3(C(F)(F)F)CC3)cn2)cn1` [Example 71, 4-(6-Methoxypyridin-3-yl)-N-(2-(1-(trifluoromethyl)cyclopropyl)ethyl)-1H-imidazole-1-carboxamide] returned a solubility of 22 µg/mL (≈ 62.1 µM). For the same molecule, on acid ceramidase (hACR), the IC50 was below 200 nM.

Regarding `CC(C)CNC(=O)n1cc(C(C)(C)C)nc1OC(C)C` [Example 107, 4-(tert-Butyl)-N-iso-butyl-2-iso-propoxy-1H-imidazole-1-carboxamide], in series [1], the concentration in solution (solubility) was 7 µg/mL (≈ 24.9 µM). The IC50 at acid ceramidase (hACR) was 200 to 1000 nM.

As for `COc1nc(C)cn1C(=O)NCCCC(F)(F)F` [Example 139, 2-Methoxy-4-methyl-N-(4,4,4-trifluorobutyl)-1H-imidazole-1-carboxamide], the solubility in series [1] was 32 µg/mL (≈ 121 µM). The IC50 on acid ceramidase (hACR) fell in the range of 200 to 1000 nM.

For the molecule `Cc1cn(C(=O)NCCc2ccccc2)c(OCCN2CCN(C)CC2)n1` [Example 190, 4-Methyl-2-(2-(4-methylpiperazin-1-yl)ethoxy)-N-phenethyl-1H-imidazole-1-carboxamide], in series [1], the solubility stood at 39 µg/mL (≈ 105 µM). Also, on acid ceramidase (hACR), the IC50 is below 200 nM.

As for `COc1nc(C)cn1C(=O)NCCCCC1(C(F)(F)F)CC1` [Example 155, 2-Methoxy-4-methyl-N-(4-(1-(trifluoromethyl)-cyclopropyl)butyl)-1H-imidazole-1-carboxamide], the solubility in series [1] turned out to be 22 µg/mL (≈ 68.9 µM). Moreover, on acid ceramidase (hACR), the IC50 was below 200 nM.

Turning to `COc1nc(C(C)(C)C)cn1C(=O)NC1CCC(F)(F)CC1` [Example 112, 4-(tert-Butyl)-N-(4,4-difluorocyclohexyl)-2-methoxy-1H-imidazole-1-carboxamide], in series [1], the solubility is 12 µg/mL (≈ 38.1 µM). Further, on acid ceramidase (hACR), the IC50 lay within 200 to 1000 nM.

`COc1nc(C(C)(C)C)cn1C(=O)NC1CCCC(F)(F)C1` (stereo not drawn) [Example 99, 4-(tert-Butyl)-N-(3,3-difluorocyclohexyl)-2-methoxy-1H-imidazole-1-carboxamide] had a solubility in series [1] of 14 µg/mL (≈ 44.4 µM). For the same molecule, the IC50 on acid ceramidase (hACR) is above 1000 nM.

As to `CN1CCC(c2cn(C(=O)NCCC#Cc3ccccc3)cn2)CC1` [Example 204, 4-(1-Methylpiperidin-4-yl)-N-(4-phenylbut-3-yn-1-yl)-1H-imidazole-1-carboxamide], in series [1], the concentration in solution (solubility) was 31 µg/mL (≈ 92.1 µM). In addition, the IC50 on acid ceramidase (hACR) was below 200 nM.

Regarding `COc1nc(C)cn1C(=O)NCCC1CCC(F)(F)C1` (stereo not drawn) [Example 154, N-(2-(3,3-Difluorocyclopentyl)ethyl)-2-methoxy-4-methyl-1H-imidazole-1-carboxamide], the solubility in series [1] amounted to 30 µg/mL (≈ 104 µM). Moreover, the IC50 at acid ceramidase (hACR) was 200 to 1000 nM.

`CC(C)CNC(=O)n1cnc(C(C)(C)C)c1` [Example 87, 4-(tert-Butyl)-N-iso-butyl-1H-imidazole-1-carboxamide]: the concentration in solution in series [1] (solubility) was 17 µg/mL (≈ 76.1 µM). For the same molecule, on acid ceramidase (hACR), the concentration for half-maximal inhibition (IC50) is 200 to 1000 nM.

`COc1nc(-c2ccccc2)cn1C(=O)NC1CCCC(F)(F)C1` (stereo not drawn) [Example 158, N-(3,3-Difluorocyclohexyl)-2-methoxy-4-phenyl-1H-imidazole-1-carboxamide]: the solubility in series [1] worked out at 1 µg/mL (≈ 2.98 µM). Moreover, the IC50 at acid ceramidase (hACR) was 200 to 1000 nM.
